Laboratory results: PMC8815882, “Screening the pandemic response box identified benzimidazole carbamates, Olorofim and ravuconazole as promising drug candidates for the treatment of eumycetoma” (PLoS Neglected Tropical Diseases, 2022)
pIC50: −log10 of the molar value. Converted amounts (≈) assume the structure as drawn. Read-outs that look alike come from different tables or passages of the source. One block for each compound: values may come before it.

Key:
M. mycetomatis MM55 = experiment: IC50 determination, 2-fold dilution series 16 to 0.03125 μM; assay type: cell-based, Madurella mycetomatis; settings: for pIC50 / IC90: Madurella mycetomatis
[1] = test system: F. senegalensis strain CBS132257; experiment: CLSI M38-A2 based in vitro susceptibility screening at 25 μM; assay type: cell-based, Falciformispora senegalensis; settings: selected if >75% (resazurin) or >80% (XTT) fungal growth inhibited
[2] = test system: ten different M. mycetomatis isolates; experiment: MIC / MIC50 determination (XTT) in ten M. mycetomatis isolates; assay type: cell-based, Madurella mycetomatis; settings: Madurella mycetomatis
[3] = test system: M. mycetomatis isolate MM55; experiment: M. mycetomatis grain infection model in G. mellonella larvae, survival; assay type: in vivo, Galleria mellonella; set-up: In vivo efficacy, Larvae survival %: concentration or dose not given beside the values
[4] = test system: M. pseudomycetomatis strain Mex2A; experiment: CLSI M38-A2 based in vitro susceptibility screening at 25 μM; assay type: cell-based, Madurella pseudomycetomatis; settings: selected if >75% (resazurin) or >80% (XTT) fungal growth inhibited
[5] = test system: Me. romeroi strain CBS128765; experiment: as above; assay type: cell-based, Medicopsis romeroi; settings: selected if >75% (resazurin) or >80% (XTT) fungal growth inhibited
[6] = test system: M. mycetomatis genome strain MM55; experiment: CLSI M38-A2 based in vitro susceptibility screening (XTT or resazurin), growth at fixed concentration; assay type: cell-based, Madurella mycetomatis
[7] = test system: M. tropicana strain CBS206.47; experiment: CLSI M38-A2 based in vitro susceptibility screening at 25 μM; assay type: cell-based, Madurella tropicana; settings: selected if >75% (resazurin) or >80% (XTT) fungal growth inhibited
[8] = test system: M. mycetomatis genome strain MM55; set-up: method as in PMID 29698504; settings: parasitic DHODH inhibitors of the MMV Pathogen Box screened previously; cited from earlier work
M. mycetomatis = experiment: Drug static or cidal determination; assay type: cell-based, Madurella mycetomatis
From the text: Supplement pntd.0010159.s001.xlsx, sheet "Pandemic Box Master sheet" | column: Drug static or cidal

[9] = MM55, Table 2, M. mycetomatis MM55, read-out: IC50
[10] = MM55, replicate 1, read-out: IC50 1
[11] = MM55, replicate 1, read-out: IC90 1
[12] = MM55, replicate 2, read-out: IC50 2
[13] = MM55, replicate 2, read-out: IC90 2
[14] = MM55, replicate 3, read-out: IC50 3
[15] = MM55, replicate 3, read-out: IC90 3
[16] = median MIC over ten M. mycetomatis isolates, no asterisk, read-out: MIC50
[17] = isolate CBS247.48, read-out: MIC CBS247.48
[18] = isolate MM14, read-out: MIC MM14
[19] = isolate MM45, read-out: MIC MM45
[20] = isolate MM55, read-out: MIC MM55
[21] = isolate ParijsAl1, read-out: MIC ParijsAl1
[22] = isolate Peru72012, read-out: MIC Peru72012
[23] = Madurella mycetomatis, replicate A, read-out: Percentage survival at 25um, 25 um A
[24] = Madurella mycetomatis, replicate B, read-out: Percentage survival at 25um, 25 uM B
[25] = Madurella mycetomatis, replicate C, read-out: Percentage survival at 25um, 25 uM C

pIC50 (M. mycetomatis MM55; [9]): 5.58
pIC50 (M. mycetomatis MM55; MM55, Table 3, benzimidazole carbamates, M. mycetomatis, read-out: IC50): 5.58
pIC50 (M. mycetomatis MM55; MM55, mean, read-out: IC50 mean): 5.58
IC90 (M. mycetomatis MM55; MM55, read-out: IC90 mean): 9.09 µM
pIC50 (M. mycetomatis MM55; [10]): 5.59
IC90 (M. mycetomatis MM55; [11]): 17 µM
pIC50 (M. mycetomatis MM55; [12]): 5.60
IC90 (M. mycetomatis MM55; [13]): 4.6 µM
pIC50 (M. mycetomatis MM55; [14]): 5.54
IC90 (M. mycetomatis MM55; [15]): 5.68 µM
MIC50 ([2]; Table 3 and Fig 5, benzimidazole carbamates, M. mycetomatis, read-out: MIC50): 0.5 µM (≈ 0.15 µg/mL)
MIC50 [2, 16]: 2 µM (≈ 0.599 µg/mL)
MIC50 ([2]; over the isolates tested, read-out: MIC50 mean): 0.5 µM (≈ 0.15 µg/mL)
MIC [2, 17]: 0.5 µM (≈ 0.15 µg/mL)
MIC [2, 18]: 0.5 µM (≈ 0.15 µg/mL)
MIC [2, 19]: 0.5 µM (≈ 0.15 µg/mL)
MIC [2, 20]: 0.5 µM (≈ 0.15 µg/mL)
MIC ([2]; isolate P1, read-out: MIC P1): 0.5 µM (≈ 0.15 µg/mL)
MIC [2, 21]: 0.5 µM (≈ 0.15 µg/mL)
MIC [2, 22]: 0.5 µM (≈ 0.15 µg/mL)
MIC ([2]; isolate So1, read-out: MIC So1): 2 µM (≈ 0.599 µg/mL)
MIC ([2]; isolate i1, read-out: MIC i1): 0.25 µM (≈ 0.0748 µg/mL)
MIC ([2]; isolate i11, read-out: MIC i11): 1 µM (≈ 0.299 µg/mL)
SMILES: COC(=O)Nc1nc2ccc(Sc3ccccc3)cc2[nH]1 [MMV003143, Fenbendazole]
Drug static or cidal (M. mycetomatis MM55): Static
Inhibits growth of Falciformispora senegalensis at 25 μM [1]: inhibit the growth
Larvae survival rate on day ten ([3]; 20 μM per larvae at 4, 28, 52 h after infection, day ten): 24.4%
Effect on larvae survival Day 4 (words) ([3]; 20 μM per larvae, vs infected control, day four): Increase survival
Effect on larvae survival Day 10 (words) ([3]; 20 μM per larvae, vs infected control, day ten): Increase survival
Effect on larvae survival Day 10 (words) ([3]; 20 μM per larvae, vs infected control, day ten, listed as fenbendazole): able to increase larvae survival
In vivo efficacy, Enhanced survival compared to control? ([3]; in vivo): yes *
In vivo efficacy, Larvae survival % ([3]; in vivo): 24.4%
Inhibits growth of Madurella pseudomycetomatis at 25 μM [4]: inhibit the growth
Inhibits growth of Medicopsis romeroi at 25 μM [5]: inhibit the growth
Inhibits growth of Madurella mycetomatis at 25 μM ([6]; 25 μM, selected if >75% (resazurin) or >80% (XTT) fungal growth inhibited): inhibit the growth
activity at 25 µM ([6]; Madurella mycetomatis, mean, read-out: Percentage survival at 25um, 25 uM mean): 2.38%
activity at 25 µM [6, 23]: -0.759%
activity at 25 µM [6, 24]: 3.53%
activity at 25 µM [6, 25]: 4.38%
activity at 100 µM ([6]; Madurella mycetomatis, 100 uM, mean, read-out: Percentage survival at 100um, 100 uM mean): 7.16%
activity at 100 µM ([6]; Madurella mycetomatis, 100 uM, replicate (first column), read-out: Percentage survival at 100um, 100 uM A): 0.376%
activity at 100 µM ([6]; Madurella mycetomatis, 100 uM, replicate (second column), read-out: Percentage survival at 100um, 100 uM A): 9.19%
activity at 100 µM ([6]; Madurella mycetomatis, 100 uM, replicate (third column), read-out: Percentage survival at 100um, 100 uM A): 11.9%
Inhibits growth of Madurella tropicana at 25 μM [7]: inhibit the growth

SMILES: Cc1cc(Nc2ccc(C(F)(F)F)cc2)n2ccnc2n1 [MMV011229]
In vitro activity against M. mycetomatis [8]: no activity

pIC50 (M. mycetomatis MM55; [9]): 5.31
pIC50 (M. mycetomatis MM55; MM55, mean of replicates, read-out: IC50 mean): 5.31
IC90 (M. mycetomatis MM55; MM55, mean of replicates, read-out: IC90 mean): 18.2 µM
pIC50 (M. mycetomatis MM55; [10]): 5.57
IC90 (M. mycetomatis MM55; [11]): 14 µM
pIC50 (M. mycetomatis MM55; [12]): 5.53
IC90 (M. mycetomatis MM55; [13]): 19.2 µM
pIC50 (M. mycetomatis MM55; [14]): 5.05
IC90 (M. mycetomatis MM55; [15]): 21.4 µM
MIC50 [2, 16]: 4 µM (≈ 1.8 µg/mL)
MIC [2, 17]: 8 µM (≈ 3.6 µg/mL)
MIC [2, 18]: > 16 µM
MIC [2, 19]: > 16 µM
MIC [2, 20]: 8 µM (≈ 3.6 µg/mL)
MIC ([2]; isolate P1, read-out: MIC P1): 4 µM (≈ 1.8 µg/mL)
MIC [2, 21]: 2 µM (≈ 0.899 µg/mL)
MIC [2, 22]: 2 µM (≈ 0.899 µg/mL)
MIC ([2]; isolate So1, read-out: MIC So1): 4 µM (≈ 1.8 µg/mL)
MIC ([2]; isolate i1, read-out: MIC i1): 2 µM (≈ 0.899 µg/mL)
MIC ([2]; isolate i11, read-out: MIC i11): 16 µM (≈ 7.19 µg/mL)
MIC50 ([2]; over ten M. mycetomatis isolates, read-out: MIC50 mean): 4 µM (≈ 1.8 µg/mL)
SMILES: Oc1c(C(Nc2nc3ccccc3s2)c2ccc(OC(F)F)cc2)ccc2cccnc12 (centres unmarked) [MMV019724]
Drug static or cidal (M. mycetomatis): Static
In vivo efficacy, Larvae survival % ([3]; G. mellonella larvae infected with M. mycetomatis): 13.3%
In vivo efficacy, Enhanced survival compared to control? ([3]; in vivo): no
activity at 25 µM ([6]; Madurella mycetomatis, mean of replicates, read-out: Percentage survival at 25um, 25 uM mean): 9.22%
activity at 25 µM [6, 23]: 14.5%
activity at 25 µM [6, 24]: 1.51%
activity at 25 µM [6, 25]: 11.7%
activity at 100 µM ([6]; Madurella mycetomatis, 100 uM, mean of replicates, read-out: Percentage survival at 100um, 100 uM mean): 16.7%
activity at 100 µM ([6]; Madurella mycetomatis, 100 uM, replicate 1, read-out: Percentage survival at 100um, 100 uM A (first replicate column)): 15.6%
Percent fungal survival at 100 µM ([6]; Madurella mycetomatis, 100 uM, replicate 2, read-out: Percentage survival at 100um, 100 uM A (second replicate column)): 13.5%
activity at 100 µM ([6]; Madurella mycetomatis, 100 uM, replicate 3, read-out: Percentage survival at 100um, 100 uM A (third replicate column)): 20.9%

SMILES: Cc1ccc(NC(=O)c2cc(S(=O)(=O)NC(C)(C)C)ccc2C)nc1 [MMV020289]
In vitro activity against M. mycetomatis [8]: no activity
